Laboratory results from publication PMC11418212, “Characterization of four structurally diverse inhibitors of SUR2-containing KATP channels” (Channels, 2024).
Entries after “also recorded” stand apart in the source; their conditions may differ.

What was measured:
Format in all cases: cell-based
Kir4.1 = biological target: T1, Kir4.1 (Homo sapiens, UniProt P78508); assay: Kir family selectivity thallium flux assay
T1 construct: expressed in transfected cells
T1 sequence (P78508 1-379): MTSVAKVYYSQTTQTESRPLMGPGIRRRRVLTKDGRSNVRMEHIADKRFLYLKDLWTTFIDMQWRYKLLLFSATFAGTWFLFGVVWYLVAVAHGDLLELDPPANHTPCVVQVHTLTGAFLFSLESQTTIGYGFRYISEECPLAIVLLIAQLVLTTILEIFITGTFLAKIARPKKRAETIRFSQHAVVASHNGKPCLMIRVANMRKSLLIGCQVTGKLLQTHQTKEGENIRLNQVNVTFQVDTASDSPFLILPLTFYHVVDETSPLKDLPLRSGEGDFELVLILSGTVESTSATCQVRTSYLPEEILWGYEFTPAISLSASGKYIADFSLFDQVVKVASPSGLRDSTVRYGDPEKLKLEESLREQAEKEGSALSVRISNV
Protocol: (§1) Thallium flux assays were conducted using the established methods. Stably transfected T-REx-HEK-293 cells expressing Kir6.2/SUR1 or Kir6.1/SUR2B were cultured overnight in polyamine-coated plates (black-walled, clear-bottomed; BD, Bedford, MA) at a density of 20,000 cells in 20 µl per well of cell culture media. The expression of Kir6.2/SUR1 or Kir6.1/SUR2B channels was induced by treating cells with 1 µg/ml tetracycline overnight. The following day, cells were rinsed with an assay buffer (Hanks’ Balanced Salt Solution supplied with 20 mM HEPES), loaded with the thallium-sensor dye Brilliant Thallos-AM AM (Ion Bioscience, San Marcos, TX) for 1 h, and then washed again with assay buffer to remove unincorporated dye. The cell plate was subsequently placed in a Panoptic Kinetic Imaging Plate Reader (Wavefront Bioscience, Franklin, TN) and imaged at a frequency of 1 Hz using 482/35 nm (excitation) and 536/40 nm (emission) filter sets. Kir6.1/SUR2B channels were activated with 10 µM pinacidil, whereas Kir6.1/SUR1 was activated with 30 µM VU0071063 [34]. To activate KATP channels independent of activators with ATP-depletion method, cells were treated with a cocktail of metabolic inhibitors (2.5 mM sodium cyanide and 20 mM 2-deoxy glucose) for 25 min before imagine. Control and test compounds diluted freshly from DMSO stocks into assay buffer were added to wells for four minutes before adding 0.5 mM chloride-free thallium stimulus buffer (Ion Bioscience) to initiate thallium flux through the expressed KATP channels. Thallium flux was recorded from all 384-wells for 2 min before terminating the experiment. […] Selectivity assays against other Kir channels were performed as described previously.
(§2) To begin elucidating the binding site location of VU0212387, VU0543336, VU0605768, and VU0544086, we evaluated the activity of the inhibitors against KATP channels composed of different Kir and SUR subunit combinations expressed in HEK293 cells. Specifically, the compounds were tested against Kir6.1/SUR1, Kir6.2/SUR1, Kir6.1/SUR2A, Kir6.2/SUR2A, Kir6.1/SUR2B, and Kir6.2/SUR2B at a dose of 3 µM. […] We expanded the selectivity analysis to include 10 other members of the Kir channel family.

Kir2.3 = biological target: T2, Kir2.3 (Homo sapiens, UniProt P48050); assay: Kir family selectivity thallium flux assay
T2 construct: expressed in transfected cells
T2 sequence (P48050 1-445): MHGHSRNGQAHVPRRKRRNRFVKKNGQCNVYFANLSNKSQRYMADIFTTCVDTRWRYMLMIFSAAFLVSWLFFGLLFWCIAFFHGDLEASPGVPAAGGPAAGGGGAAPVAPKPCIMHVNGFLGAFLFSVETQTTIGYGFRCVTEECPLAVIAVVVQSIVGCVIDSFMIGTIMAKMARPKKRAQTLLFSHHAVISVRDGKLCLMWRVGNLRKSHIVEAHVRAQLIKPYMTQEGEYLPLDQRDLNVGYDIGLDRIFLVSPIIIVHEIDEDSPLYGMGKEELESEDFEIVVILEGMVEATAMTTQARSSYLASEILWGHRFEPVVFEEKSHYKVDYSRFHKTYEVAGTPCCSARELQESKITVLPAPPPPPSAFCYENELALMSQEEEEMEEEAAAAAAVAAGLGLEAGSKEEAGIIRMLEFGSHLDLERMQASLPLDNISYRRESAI
Protocol: as §1, §2

Kir6.2/SUR1 = Kir6.2/SUR1 (Homo sapiens, UniProt Q09428); assay: Quantitative thallium flux assay, inhibition, stably transfected T-REx-HEK293 cells; settings: for Effect on Kir6.2/SUR1 channel activity: VU0071063 activation or ATP depletion, full range of doses tested (up to 30 µM); for IC50 / IC50 Kir6.2/SUR1, ATP depletion / IC50 Kir6.2/SUR1, VU0071063 activation: thallium flux; for IC50 / IC50 Kir6.2/SUR1, ATP depletion: ATP depletion with sodium cyanide and 2-deoxy-glucose; for IC50 Kir6.2/SUR1, VU0071063 activation: in the presence of 10 uM VU0071063
Kir6.2/SUR1, sequence (Q09428 whole entry, species assumed): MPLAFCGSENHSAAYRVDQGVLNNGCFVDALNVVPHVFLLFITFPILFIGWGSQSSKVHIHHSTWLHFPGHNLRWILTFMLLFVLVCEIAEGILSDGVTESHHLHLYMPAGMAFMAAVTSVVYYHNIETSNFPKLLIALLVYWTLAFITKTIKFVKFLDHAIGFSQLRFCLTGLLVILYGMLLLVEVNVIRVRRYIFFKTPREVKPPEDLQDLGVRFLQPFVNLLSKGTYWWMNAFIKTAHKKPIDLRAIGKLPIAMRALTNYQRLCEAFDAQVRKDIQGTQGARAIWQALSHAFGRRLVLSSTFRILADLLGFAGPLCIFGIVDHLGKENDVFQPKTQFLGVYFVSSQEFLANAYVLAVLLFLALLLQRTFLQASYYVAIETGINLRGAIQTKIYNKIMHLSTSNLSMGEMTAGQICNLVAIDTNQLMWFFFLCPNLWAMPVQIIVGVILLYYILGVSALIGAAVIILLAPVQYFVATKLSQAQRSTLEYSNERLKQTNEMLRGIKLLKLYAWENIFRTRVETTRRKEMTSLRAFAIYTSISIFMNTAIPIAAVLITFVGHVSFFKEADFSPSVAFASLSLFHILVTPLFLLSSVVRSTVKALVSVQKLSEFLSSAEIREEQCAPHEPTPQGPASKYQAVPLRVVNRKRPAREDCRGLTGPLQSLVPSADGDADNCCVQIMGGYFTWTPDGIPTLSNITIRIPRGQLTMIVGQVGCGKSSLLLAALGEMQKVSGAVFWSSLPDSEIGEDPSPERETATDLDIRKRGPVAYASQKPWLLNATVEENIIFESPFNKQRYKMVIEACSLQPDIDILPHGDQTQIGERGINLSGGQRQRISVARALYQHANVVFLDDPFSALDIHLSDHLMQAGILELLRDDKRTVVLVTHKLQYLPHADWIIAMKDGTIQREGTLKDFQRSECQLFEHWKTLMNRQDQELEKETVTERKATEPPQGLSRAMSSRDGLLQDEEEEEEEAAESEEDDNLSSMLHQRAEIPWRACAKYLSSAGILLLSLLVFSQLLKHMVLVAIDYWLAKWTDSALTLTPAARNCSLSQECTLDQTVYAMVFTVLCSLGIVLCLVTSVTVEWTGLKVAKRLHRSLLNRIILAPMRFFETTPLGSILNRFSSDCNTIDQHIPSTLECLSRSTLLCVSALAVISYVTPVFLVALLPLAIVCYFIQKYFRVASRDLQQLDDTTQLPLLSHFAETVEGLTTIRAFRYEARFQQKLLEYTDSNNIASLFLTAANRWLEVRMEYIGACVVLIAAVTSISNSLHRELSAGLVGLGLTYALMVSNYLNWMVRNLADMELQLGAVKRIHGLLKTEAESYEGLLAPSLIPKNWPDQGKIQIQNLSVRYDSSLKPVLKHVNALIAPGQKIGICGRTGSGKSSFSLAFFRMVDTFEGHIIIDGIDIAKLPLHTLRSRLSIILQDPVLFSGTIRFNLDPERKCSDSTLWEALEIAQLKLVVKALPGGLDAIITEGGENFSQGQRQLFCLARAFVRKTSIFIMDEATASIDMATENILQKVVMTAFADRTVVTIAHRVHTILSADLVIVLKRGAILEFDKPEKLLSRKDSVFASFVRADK
Kir6.2/SUR1, sequence (Q14654 whole entry partner, species assumed): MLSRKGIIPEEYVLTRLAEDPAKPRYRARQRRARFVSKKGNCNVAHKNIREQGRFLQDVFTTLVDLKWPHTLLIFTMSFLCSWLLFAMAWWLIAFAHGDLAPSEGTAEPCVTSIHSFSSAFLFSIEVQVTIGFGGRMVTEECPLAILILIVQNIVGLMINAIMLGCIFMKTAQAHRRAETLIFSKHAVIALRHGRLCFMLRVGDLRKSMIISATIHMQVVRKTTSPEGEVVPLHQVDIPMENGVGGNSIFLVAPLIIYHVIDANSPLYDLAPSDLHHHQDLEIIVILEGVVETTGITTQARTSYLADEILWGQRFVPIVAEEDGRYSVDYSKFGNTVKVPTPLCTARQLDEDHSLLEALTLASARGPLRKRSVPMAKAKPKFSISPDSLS
Protocol: Briefly, T-Rex-HEK293 cells underwent co-transfection with pcDNA5/TO-Kir6.1 or pcDNA5/TO-Kir6.2 (inducible expression) and pcDNA3.1-SUR2B or pcDNA3.1-SUR1 (constitutive expression) using Lipofectamine LTX following the manufacturer’s instructions and were then subjected to selection with antibiotics. Monoclonal cell lines were established through limiting dilution and characterization in thallium flux assays described below. […] KATP channel selectivity assays were performed in HEK293 cells transiently transfected with the indicated subunit using Lipofectamine LTX. The cells were incubated for 48 h after transfection before performing thallium flux assays.
as §1, with “The cell plate was subsequently placed in a Panoptic Kinetic Imaging Plate Reader (Wavefront Bioscience, Franklin, TN) and imaged at a frequency of 1 Hz using 482/35 nm (excitation) and 536/40 nm (emission) filter sets. Kir6.1/SUR2B channels were activated with 10 µM pinacidil, whereas Kir6.1/SUR1 was activated with 30 µM VU0071063 [34].” left out
The kinetic fluorescence measurements (F) from each well were normalized to the initial reading (F0), producing static ratios (F/F0) that adjust for variations in cell count and dye uptake. […] The response (maxmin2) was determined by subtracting the min value from the max value. Percent inhibition was calculated by normalizing each well’s response to the positive and negative controls. Concentration–response curves were fitted using a single-site, four-parameter logistic function in Prism version 4.0 (GraphPad Software Inc., San Diego, CA) to calculate the half-maximal inhibitory concentration (IC50). Statistical comparisons of IC50 values were performed using an extra sum-of-squares F test and the Mann–Whitney test. A p-value of less than 0.05 was considered statistically significant.

O=C(NCc1cc(-c2ccncc2)n(C2CCCC2)n1)Nc1cccs1 [VU0544086, 1-((1-cyclopentyl-5-(pyridin-4-yl)-1 H-pyrazol-3-yl)methyl)-3-(thiophen-2-yl)urea]
IC50 (Kir4.1): > 30 µM | IC50 (Kir2.3): > 30 µM | Effect on Kir6.2/SUR1 channel activity (Kir6.2/SUR1): no apparent inhibitory activity; also recorded: no effect | IC50 (Kir6.2/SUR1): > 30 µM | IC50 Kir6.2/SUR1, ATP depletion (Kir6.2/SUR1): no fit | IC50 Kir6.2/SUR1, VU0071063 activation (Kir6.2/SUR1): no fit

O=C(NCC(O)(c1ccccc1)C(F)(F)F)c1ccc(OC(F)(F)F)cc1 (stereo not drawn) [VU0543336, N-(3,3,3-trifluoro-2-hydroxy-2-phenylpropyl)-4-(trifluoromethoxy)benzamide]
IC50 (Kir4.1): > 30 µM | IC50 (Kir2.3): > 30 µM | Effect on Kir6.2/SUR1 channel activity (Kir6.2/SUR1): no apparent inhibitory activity; also recorded: no effect | IC50 (Kir6.2/SUR1): > 30 µM | IC50 Kir6.2/SUR1, ATP depletion (Kir6.2/SUR1): no fit | IC50 Kir6.2/SUR1, VU0071063 activation (Kir6.2/SUR1): no fit

O=C1c2oc3ccccc3c(=O)c2C(c2cccc(Br)c2)N1CCO (stereo not drawn) [VU0605768, 1-(3-bromophenyl)-2-(2-hydroxyethyl)-1,2-dihydrochromeno[2,3-c]pyrrole-3,9-dione]
IC50 (Kir4.1): > 30 µM | IC50 (Kir2.3): > 30 µM | Effect on Kir6.2/SUR1 channel activity (Kir6.2/SUR1): no apparent inhibitory activity; also recorded: no effect | IC50 (Kir6.2/SUR1): > 30 µM | IC50 Kir6.2/SUR1, ATP depletion (Kir6.2/SUR1): no fit | IC50 Kir6.2/SUR1, VU0071063 activation (Kir6.2/SUR1): no fit

c1ccc2[nH]c(CSc3ncnc4c3oc3ccccc34)nc2c1 [VU0212387, 4-(((1 H-benzo[d]imidazol-2-yl)methyl)thio)benzofuro[3,2-d]pyrimidine]
IC50 (Kir4.1): > 30 µM | IC50 (Kir2.3): > 30 µM | Effect on Kir6.2/SUR1 channel activity (Kir6.2/SUR1): no apparent inhibitory activity; also recorded: no effect | IC50 (Kir6.2/SUR1): > 30 µM | IC50 Kir6.2/SUR1, ATP depletion (Kir6.2/SUR1): no fit | IC50 Kir6.2/SUR1, VU0071063 activation (Kir6.2/SUR1): no fit
